The target in assay [1] is bee venom phospholipase A2 (PLA2) (Apis mellifera, UniProt P00630). Briefly: biochemical. Conditions: for inhibition at 0.75 µM: pH 7.4, read-out: Percent Inhibition of PLA2; for inhibition at 0.25 µM / inhibition at 0.5 µM / inhibition at 2 µM / inhibition at 4 µM: pH 7.4, read-out: Percent Inhibition of PLA2; for inhibition at 0.5 µM: 0.50 uM.
Assay [2] deals with PMA-induced ear edema (inflammation) in mice. Briefly: Mouse ear anti-inflammatory assay (PMA-induced edema). The class given is in vivo. Particulars: for relative increase in ear weight: statistically significant difference. The procedure:
Test compound and phorbol myristate acetate (PMA) are topically applied simultaneously to the pinnae of the left ears of mice. PMA alone is applied to the right ear. Three hours and 20 minutes after application, the mice are sacrificed, left and right ears removed, and standard sized bores taken. Edema (inflammation) is measured as the difference in weight between left and right ears (C. G. Van Arman, Clin Pharmacol Ther (1974) 16:900-904).
The results of separate, similar experiments are set forth below (*=statistically significant difference).
In another separate experiment, the effect of dehydro-seco-manoalide was determined (PMA=15 μg/ear).
In separate, similar experiments, where […] was at 1.5 ug/ear, luffariellin A and B (50 ug/ear) gave statistically significant differences in relative increase in ear weight (0.308±0.065 and 0.262±0.053, respectively) as compared to PNA alone (0.618± 0.113); as did 50 ug luffariellolide (0.221±0.068) as compared to PMA alone (0.929±0.200).

In assay [3] the test system is Chinese hamster ovary K1 cells. Briefly: Effect on CHO cell growth. The class given is cell-based. Particulars: Cricetulus griseus. The method, then:
Chinese hamster ovary K1 cells are maintained in Dulbecco's Modified Eagle's Medium at 36° C. with 95% air and 5% CO2. Cells are transferred into 35 mm culture dishes, allowed 24 hours to adhere, then exposed to medium containing drug for the duration of the experiment. The number of adhered cells is counted at 24, 48, and 72 hours after initial exposure to drug.

Assay [4] deals with bee venom PLA2 (Apis mellifera, UniProt P00630). Put plainly: biochemical. Conditions: pH 7.4.
bee venom PLA2, sequence (P00630 34-167 limits assumed): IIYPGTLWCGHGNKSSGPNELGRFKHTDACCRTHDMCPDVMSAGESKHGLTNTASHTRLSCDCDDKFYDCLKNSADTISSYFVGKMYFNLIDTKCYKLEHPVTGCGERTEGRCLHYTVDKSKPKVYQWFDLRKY
The mark [5] stands for this setting: dose 25.0 ug/ear topical, PMA 1.5 ug/ear, untreated 9.3 mg, PMA alone 23 mg, *=statistically significant.
Setting [6] is: dose 50.0 ug/ear topical, PMA 1.5 ug/ear, untreated 9.3 mg, PMA alone 23 mg, *=statistically significant.
Where [7] appears, read: 50 ug/ear, PNA [sic] 1.5 ug/ear, PNA alone 0.618±0.113.

The inhibition is the percentage by which the read-out fell short of the control.

bee venom phospholipase A2 (PLA2), sequence (P00630 34-167 limits assumed): as above

In the case of `CC(=CCCC(C=O)=CC=CC1=CC(=O)OC1O)CCC1=C(C)CCCC1(C)C` (stereo not shown) [Dehydro-seco-manoalide], in assay [1], the inhibition at 0.75 µM came out at 51.3%, the inhibition at 0.25 µM amounted to 30.3%, the inhibition at 0.5 µM amounted to 61.8% and the inhibition at 2 µM amounted to 72.4%. In addition, the inhibition at 4 µM in assay [1] turned out to be 87.3%. In assay [2] (from dose/response data, relative to manoalide), the “relative potency of dehydro-seco-manoalide to manoalide” value is 1.32. For the same molecule, in assay [2] (separate experiment, dose 50 ug/ear, PMA=15 μg/ear, no agent 24.60 mg/ear), the “Average Ear Weight” value amounted to 14.30 mg/ear.
With `CC(=CCCC(=CCC(O)C1=CC(=O)OC1)CO)CCC1=C(C)CCCC1(C)C` (stereo not shown) [Manoalide Diol, 3,7-Bis(hydroxymethyl)-4-hydroxy-11-methyl-13-(2,6,6-trimethylcyclohexenyl)-2,6,10-tridecatrienoic acid gamma-lactone], the “Average Ear Weight” value in assay [2] (setting [5]) stood at 14.54 mg/ear; in assay [2] (setting [6]), 13.17 mg/ear.
On to `CC(=O)OC1OC(=O)C=C1C1CC=C(CCC=C(C)CCC2=C(C)CCCC2(C)C)C(=O)O1` (stereo not shown) [Manoalide delta Lactone Acetate, manoalide delta-lactone acetate], for which the figures for the “Average Ear Weight” value in assay [2] (setting [5]) and in assay [2] (setting [6]) were 16.64 mg/ear and 13.34 mg/ear, respectively.
On the same counts, the results for `CC(=CCCC1=CCC(C2=CC(=O)OC2O)OC1=O)CCC1=C(C)CCCC1(C)C` (stereo not shown) [Manoalide delta Lactone, manoalide delta-lactone] are 16.28 mg/ear and 14.87 mg/ear.
For the molecule `CC(=CCCC1=CCC(C2=CC(=O)OC2O)OC1O)CCC1=C(C)CCCC1(C)C` (stereo not shown) [Manoalide, reference compound], in assay [1], the inhibition at 0.75 µM is 73.5%. For the same molecule, in assay [1], the inhibition at 0.25 µM came to 20.7%. Also, in assay [1], the inhibition at 0.5 µM came to 48%. Moreover, the inhibition at 2 µM in assay [1] is 92.8%. Also, the inhibition at 4 µM in assay [1] worked out at 94.5%. The “Average Ear Weight” value is reported as 20.45 mg/ear in assay [2] (dose 7.5 ug/ear topical, PMA 1.5 ug/ear, untreated 9.3 mg, PMA alone 23 mg, *=statistically significant); 19.75 mg/ear in assay [2] (dose 10.0 ug/ear topical, PMA 1.5 ug/ear, untreated 9.3 mg, PMA alone 23 mg, *=statistically significant); 17.00 mg/ear in assay [2] (dose 20.0 ug/ear topical, PMA 1.5 ug/ear, untreated 9.3 mg, PMA alone 23 mg, *=statistically significant); 16.80 mg/ear in assay [2] (dose 40.0 ug/ear topical, PMA 1.5 ug/ear, untreated 9.3 mg, PMA alone 23 mg, *=statistically significant); 12.90 mg/ear in assay [2] (dose 80.0 ug/ear topical, PMA 1.5 ug/ear, untreated 9.3 mg, PMA alone 23 mg, *=statistically significant); 12.60 mg/ear in assay [2] (dose 160.0 ug/ear topical, PMA 1.5 ug/ear, untreated 9.3 mg, PMA alone 23 mg, *=statistically significant). In assay [2] (dose 320.0 ug/ear topical, PMA 1.5 ug/ear, untreated 9.3 mg, PMA alone 23 mg, *=statistically significant), the “Average Ear Weight” value was determined as 11.20 mg/ear.
Turning to `C=C(C)C1(CCC(C)=CCCC2=CCC(C3=CC(=O)OC3O)OC2O)CCCC1C` (stereo not shown) [luffariellin A], in assay [2] (setting [7]), the “relative increase in ear weight” value was 0.308±0.065.
As for `C=C(C)C1(CCC(C)=CCCC(C=O)=CCC(O)C2=CC(=O)OC2O)CCCC1C` (stereo not shown) [luffariellin B], the “relative increase in ear weight” value in assay [2] (setting [7]) worked out at 0.262±0.053.
For the molecule `CC(=CCCC1=CC(=O)OC1O)CCC=C(C)CCC1=C(C)CCCC1(C)C` (stereo not shown) [luffariellolide, 3-(4,8-dimethyl-10-(2,6,6-trimethylcyclohexenyl)-deca,7-dienyl)-4-hydroxybutenolide], the inhibition at 42 µM in assay [3] (24 hours) was found to be 63%; in assay [3] (48 hours), 74%; in assay [3] (72 hours) it was 71%. Also, testing at 0.25 µM in assay [4] (0.25 uM) gave an inhibition of 59%. Moreover, the inhibition at 0.5 µM in assay [4] (0.5 uM) came to 59.7%. Further, in assay [4] (1.0 uM), the inhibition at 1 µM turned out to be 62.6%. In assay [2] (50 ug, PMA alone 0.929±0.200), the “relative increase in ear weight” value came out at 0.221±0.068.

The values above are taken from patent US4952605A (priority 1988, dated 1990).
